Here are results for 16 molecules from paper PMC7996328, “Design, Synthesis, and Biological Evaluation of a Series of 5- and 7-Hydroxycoumarin Derivatives as 5-HT1A Serotonin Receptor Antagonists” (Pharmaceuticals, 2021).

One series addresses T1, 5-HT2A receptor (Rattus norvegicus, UniProt P14842).
T1 construct: from tissue; host or cells: rat frontal cortex (male SD), membrane homogenate
The experiment in a line: 5-HT2A competition binding assay, [3H]ketanserin, frontal cortex homogenates. The settings on record: [3H]ketanserin 1 nM. As to the method: Male SD rats were decapitated and their brains removed and placed on ice. Frontal cortices were homogenized with a glass homogenizer in 30 vol ice-cold homogenization buffer (50 mM Tris-HCl. 1 mM EDTA. 5 mM MgCl2. pH 7.4). Next, the homogenate was centrifuged at 20,000× g for 15 min at 4 °C. […] The suspension was again centrifuged at 20,000× g for 15 min at 4 °C. The pellet was resuspended in 10 vol. 50 mM Tris-HCl (pH 7.4) and the centrifugation step was repeated. The final pellet was suspended in 10 vol 50 mM Tris-HCl (pH 7.4) and stored at −80 °C.
Non-specific binding was determined in the presence of 10 μM mianserin. After incubation, the reaction mixture was deposited onto UniFilter-96 GF/B plates with the aid of a FilterMate-96 Harvester. Filter plates were presoaked beforehand with 0.4% PEI for 1 h. Next, each filter well was washed with 1.75 mL of 50 mM Tris-HCl (pH 7.4) and left to dry on a heating block set to 50 °C for 2 h. Then 45 µL of Microscint-20 scintillation fluid was added to each filter well and left to equilibrate overnight. Filter-bound radioactivity was counted in a MicroBeta^2 Microplate Counter. Binding curves were fitted with one site non-linear regression. Affinity was presented as the inhibitory constant (pKi ± SEM and Ki ± SEM) from two or three separate experiments.

Another series has as its target T2, 5-HT1A receptor (Rattus norvegicus, UniProt P19327).
T2 construct: Hippocampal homogenates (15 μg/mL) were added to each tube as the 5-HT1A receptor source; from tissue; host or cells: rat hippocampus (male Sprague-Dawley), membrane homogenate
T2 sequence (P19327 1-422): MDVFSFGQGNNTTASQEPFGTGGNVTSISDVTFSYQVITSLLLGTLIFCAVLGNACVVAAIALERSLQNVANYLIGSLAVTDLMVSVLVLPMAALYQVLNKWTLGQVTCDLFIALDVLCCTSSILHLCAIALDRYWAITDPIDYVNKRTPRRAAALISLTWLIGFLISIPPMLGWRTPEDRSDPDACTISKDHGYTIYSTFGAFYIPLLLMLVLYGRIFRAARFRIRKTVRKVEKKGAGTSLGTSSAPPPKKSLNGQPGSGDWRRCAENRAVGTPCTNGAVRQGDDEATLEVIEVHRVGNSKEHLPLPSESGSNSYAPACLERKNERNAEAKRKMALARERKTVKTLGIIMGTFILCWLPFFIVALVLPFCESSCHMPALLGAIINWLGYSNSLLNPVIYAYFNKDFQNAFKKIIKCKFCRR
The experiment in a line: Antagonist activity for the 5-HT1A receptor, [35S]GTPγS assay in hippocampal homogenates. The class given is biochemical. The settings on record: 8-OH-DPAT 1.4 × 10^−7 M, mean ± SEM; for EC50 (nM ± SEM) / EC50: antagonistic activity. As to the method: Male Sprague–Dawley rats were decapitated, their brains removed, and placed on ice. Hippocampi were dissected and homogenized with a glass homogenizer in 30 vol. ice-cold TED buffer (50 mM Tris-HCl, 1 mM EDTA, 1mM dithiotheritol, pH 7.4). Next, the homogenate was centrifuged at 21,000× g for 30 min at 4 °C. […] The suspension was centrifuged again at 21,000× g for 30 min at 4 °C. The pellet was resuspended in 30 vol. TED buffer (pH 7.4) and the centrifugation step was repeated. The final pellet was suspended in 10 vol 50 mM Tris-HCl (pH 7.4) and stored at −80 °C until use.
Serial dilutions of the compounds tested (10^−10–10^−5 M) were incubated in triplicate with 0.8 nM [^35S]GTPγS in assay buffer (50 mM Tris-HCl, pH = 7.4, 1 mM EGTA, 3 mM MgCl2, 100 mM NaCl, 30 µM GDP) and 8-OH-DPAT (final concentration 1.4 × 10^−7 M) in the final assay volume of 250 µL. Hippocampal homogenates (15 μg/mL) were added to each tube as the 5-HT1A receptor source. […] Non-specific binding was determined with 10 µM of unlabeled GTPγS. […] Next, 96-well Unifilter® Plates (Perkin Elmer, Waltham, MA, USA) were presoaked for 1 h with 50 mM Tris-HCl (pH = 7.4) before harvesting. The reaction was terminated by vacuum filtration onto filter plates with the FilterMate Harvester® (Perkin Elmer, Waltham, MA, USA). The samples were then rapidly washed with 2 mL of 50 mM Tris-HCl (pH = 7.4) buffer. Filter plates were dried for 2 h at 50 °C. After drying, 45 µL of EcoScint-20 scintillant (Perkin Elmer) was added to every well. Radioactivity was counted in a Trilux MicroBeta^2 counter (Perkin Elmer). Data were analyzed with GraphPad Prism 5.0 software (GraphPad Software, San Diego, CA, USA, www.graphpad.com). Curves were fitted with a one-site non-linear regression model. Efficacy (Emax) and half maximal inhibitory concentration (IC50) were calculated from the Cheng–Prusoff equation and expressed as means ± SEM.
On the technique in general: GTPγS is a poorly hydrolysed GTP analogue; its binding reports G protein activation.

The mark [1] stands for this setting: read-out: Ki (nM ± SEM) (converted).
[2] abbreviates: read-out: pKi (M ± SEM) (converted).

SMILES strings stand for the structures. “Also recorded” adds a separate entry of the source. Where two headings read alike, the source gives them in different places.

T1 sequence (P14842 whole entry): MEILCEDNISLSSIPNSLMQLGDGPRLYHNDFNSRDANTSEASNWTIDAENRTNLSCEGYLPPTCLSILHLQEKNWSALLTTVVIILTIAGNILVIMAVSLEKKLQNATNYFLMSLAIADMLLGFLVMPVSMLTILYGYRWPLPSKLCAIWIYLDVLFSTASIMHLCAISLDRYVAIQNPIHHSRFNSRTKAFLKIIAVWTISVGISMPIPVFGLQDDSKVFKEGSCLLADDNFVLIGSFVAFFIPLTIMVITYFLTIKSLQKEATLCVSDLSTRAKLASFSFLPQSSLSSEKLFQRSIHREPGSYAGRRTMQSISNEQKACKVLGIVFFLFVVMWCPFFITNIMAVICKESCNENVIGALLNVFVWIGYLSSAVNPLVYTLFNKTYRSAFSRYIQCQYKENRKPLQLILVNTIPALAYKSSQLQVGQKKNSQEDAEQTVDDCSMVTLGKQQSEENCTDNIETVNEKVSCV

A word on the melting point: it is the temperature of the solid-liquid transition. `Cc1ccc(C)c(N2CCN(CCOc3cc(C)cc4oc(=O)cc(C)c34)CC2)c1` [Compound 2d, 5-(2-(4-(2,5-dimethylphenyl)piperazin-1-yl)ethoxy)-4,7-dimethyl-2H-chromen-2-one] yielded a melting point of 119 to 120 °C. On 5-HT2A receptor (setting [1]), the Ki was 7320 ± 2080 nM. For the same molecule, on 5-HT2A receptor (setting [2]), the Ki is 7410 nM. Besides, on 5-HT1A receptor, the “pIC50 ± SEM” value is given as “no activity” and the “EC50 (nM ± SEM)” value is given as “did not show any activity; also recorded: no activity”.
In turn, `Cc1cc(OCCN2CCN(c3ccccc3Br)CC2)c2c(C)cc(=O)oc2c1` [Compound 2f, 5-(2-(4-(2-bromophenyl)piperazin-1-yl)ethoxy)-4,7-dimethyl-2H-chromen-2-one] registered a melting point of 129 to 130 °C. Further, on 5-HT2A receptor (setting [1]), the Ki was 9600 ± 2840 nM. Besides, at 5-HT1A receptor, the “pIC50 ± SEM” value is “no activity” and the “EC50 (nM ± SEM)” value was “did not show any activity; also recorded: no activity”.
Take `Cc1cc(C)cc(N2CCN(CCOc3cc(C)cc4oc(=O)cc(C)c34)CC2)c1` [Compound 2h, 5-(2-(4-(3,5-dimethylphenyl)piperazin-1-yl)ethoxy)-4,7-dimethyl-2H-chromen-2-one]: the melting point was in the range of 149 to 150 °C. In addition, the Ki on 5-HT2A receptor (setting [1]) is 2920 ± 992 nM. Further, at 5-HT1A receptor, the “pIC50 ± SEM” value is listed as “no activity” and the “EC50 (nM ± SEM)” value was “did not show any activity; also recorded: no activity”.
As a reminder, the IC50 is the midpoint of a concentration-inhibition curve. Read a high IC50 as weaker potency. The term EC50 denotes the concentration giving half of the maximal effect. For the molecule `Cc1cc(OCCN2CCN(c3cccc(Cl)c3Cl)CC2)c2c(C)cc(=O)oc2c1` [Compound 2i, 5-(2-(4-(2,3-dichlorophenyl)piperazin-1-yl)ethoxy)-4,7-dimethyl-2H-chromen-2-one], the melting point was in the range of 142 to 145 °C. Moreover, the Ki at 5-HT2A receptor (setting [1]) was 4310 ± 1550 nM. At 5-HT1A receptor, this molecule showed an IC50 of 398 µM and an EC50 of 366000 nM.
On to `Cc1cc(OCCN2CCN(c3ccccc3C#N)CC2)c2c(C)cc(=O)oc2c1` [Compound 2j, 5-(2-(4-(2-cyanophenyl)piperazin-1-yl)ethoxy)-4,7-dimethyl-2H-chromen-2-one], for which the melting point lay in the range of 127 to 129 °C. For the same molecule, the Ki on 5-HT2A receptor (setting [1]) was 5620 ± 1850 nM. Further, on 5-HT1A receptor, the “pIC50 ± SEM” value is “no activity” and the “EC50 (nM ± SEM)” value is given as “did not show any activity; also recorded: no activity”.
Molecule `CC(=O)c1c(C)cc2oc(=O)cc(C)c2c1OCCCCCN1CCN(c2ccccc2F)CC1` [Compound 3b, 6-acetyl-5-(5-(4-(2-fluorophenyl)piperazin-1-yl)pentyloxy)-4,7-dimethyl-2H-chromen-2-one] gave a melting point of 137 to 139 °C. On 5-HT2A receptor (setting [1]), the Ki was 1220 ± 166 nM. At 5-HT2A receptor (setting [2]), the Ki is 1170 nM. Further, at 5-HT1A receptor, the half-maximal inhibitory concentration (IC50) was 20 µM and the concentration giving a half-maximal response (EC50) amounted to 19200 nM.
Turning to `COc1cccc(N2CCN(CCCCCOc3c(C(C)=O)c(C)cc4oc(=O)cc(C)c34)CC2)c1` [Compound 3c, 6-acetyl-5-(5-(4-(3-methoxyphenyl)piperazin-1-yl)pentyloxy)-4,7-dimethyl-2H-chromen-2-one], the melting point is 86 to 88 °C. For the same molecule, the Ki at 5-HT2A receptor (setting [1]) is 492 ± 99.7 nM. On 5-HT1A receptor, the half-maximal inhibitory concentration (IC50) was 1.58 µM and the concentration giving a half-maximal response (EC50) worked out at 1550 ± 190 nM.
For `CC(=O)c1c(C)cc2oc(=O)cc(C)c2c1OCCCCCN1CCN(c2cc(C)ccc2C)CC1` [Compound 3d, 6-acetyl-5-(5-(4-(2,5-dimethylphenyl)piperazin-1-yl)pentyloxy)-4,7-dimethyl-2H-chromen-2-one], in that order: 97 to 99 °C, 1940 ± 388 nM, 10 µM and 9430 ± 1040 nM.
Consider `CC(=O)c1c(C)cc2oc(=O)cc(C)c2c1OCCCCCN1CCN(c2cccc(F)c2)CC1` [Compound 3e, 6-acetyl-5-(5-(4-(3-fluorophenyl)piperazin-1-yl)pentyloxy)-4,7-dimethyl-2H-chromen-2-one], for which the melting point lay within 150 to 152 °C. Also, the Ki on 5-HT2A receptor (setting [1]) is 1420 ± 426 nM. At 5-HT1A receptor, this molecule had an IC50 of 0.708 µM and an EC50 of 702 ± 112 nM.
`CC(=O)c1c(C)cc2oc(=O)cc(C)c2c1OCCCCCN1CCN(c2ccccc2Br)CC1` [Compound 3f, 6-acetyl-5-(5-(4-(2-bromophenyl)piperazin-1-yl)pentyloxy)-4,7-dimethyl-2H-chromen-2-one] showed a melting point of 108 to 109 °C. For the same molecule, the Ki at 5-HT2A receptor (setting [1]) was 354 ± 110 nM. For the same molecule, at 5-HT1A receptor, half-maximal inhibition (IC50) required 0.692 µM and the EC50 stood at 689 ± 138 nM.
For `CC(=O)c1c(C)cc2oc(=O)cc(C)c2c1OCCCCCN1CCN(c2cccc(Br)c2)CC1` [Compound 3g, 6-acetyl-5-(5-(4-(3-bromophenyl)piperazin-1-yl)pentyloxy)-4,7-dimethyl-2H-chromen-2-one], in that order: 100 to 102 °C, 664 ± 154 nM, 1.29 µM and 1280 ± 254 nM.
On to `CC(=O)c1c(C)cc2oc(=O)cc(C)c2c1OCCCCCN1CCN(c2cc(C)cc(C)c2)CC1` [Compound 3h, 6-acetyl-5-(5-(4-(3,5-dimethylphenyl)piperazin-1-yl)pentyloxy)-4,7-dimethyl-2H-chromen-2-one], for which the melting point lay in the range of 100 to 102 °C. Also, the Ki at 5-HT2A receptor (setting [1]) was 1800 ± 521 nM. Besides, at 5-HT1A receptor, the IC50 was 1.26 µM and it took 1240 ± 112 nM to reach a half-maximal effect (EC50).
For `CC(=O)c1c(C)cc2oc(=O)cc(C)c2c1OCCCCCN1CCN(c2cccc(Cl)c2Cl)CC1` [Compound 3i, 6-acetyl-5-(5-(4-(2,3-dichlorophenyl)piperazin-1-yl)pentyloxy)-4,7-dimethyl-2H-chromen-2-one] the same measures were 129 to 130 °C, 486 ± 102 nM, 15.8 µM and 15400 nM.
`COc1ccccc1N1CCN(CCOc2c(C(C)=O)c(C)cc3oc(=O)cc(C)c23)CC1` [Compound 4a, 6-acetyl-5-(2-(4-(2-methoxyphenyl)piperazin-1-yl)ethoxy)-4,7-dimethyl-2H-chromen-2-one] registered a melting point of 132 to 134 °C. Also, at 5-HT2A receptor (setting [1]), the Ki is 5210 ± 1250 nM. On 5-HT1A receptor, the IC50 is 0.1 µM and the EC50 was found to be 91.6 ± 13.3 nM.
For `CC(=O)c1c(C)cc2oc(=O)cc(C)c2c1OCCN1CCN(c2ccccc2F)CC1` [Compound 4b, 6-acetyl-5-(2-(4-(2-fluorophenyl)piperazin-1-yl)ethoxy)-4,7-dimethyl-2H-chromen-2-one], in that order: 118 to 119 °C, 7050 ± 1650 nM, 5.01 µM and 5000 ± 218 nM.
Turning to `COc1cccc(N2CCN(CCOc3c(C(C)=O)c(C)cc4oc(=O)cc(C)c34)CC2)c1` [Compound 4c, 6-acetyl-5-(2-(4-(3-methoxyphenyl)piperazin-1-yl)ethoxy)-4,7-dimethyl-2H-chromen-2-one], the melting point is 75 to 76 °C. The Ki on 5-HT2A receptor (setting [1]) was 513 ± 137 nM. On 5-HT1A receptor, this molecule showed an IC50 of 5.01 µM and a 50% effective concentration (EC50) of 5010 ± 117 nM.
